The numbers were not newly measured in US20260315605A1, “PROTACS FOR ASK1 PROTEIN DEGRADATION: PREPARATION AND USE THEREOF” (COUNCIL OF SCIENTIFIC AND INDUSTRIAL RESEARCH, priority 2023, published 2026), which cites them from elsewhere.

For one data set, the system named is NASH patients. The settings on record: Phase III, Harrison et al. 2020.
The subject of the next data set is ASK1/MAPK pathway. The settings on record: Harrison et al. 2020.

Consider `Cc1cc(F)c(C(=O)Nc2cccc(-c3nncn3C(C)C)n2)cc1-n1cnc(C2CC2)c1` [selonsertib], for which, in the data set with NASH patients, the “clinical outcome, fibrosis improvement” value was “failed in Phase III clinical trial of fibrosis improvement in NASH patients”. In the data set with ASK1/MAPK pathway, the anti-fibrotic activity entry is “promising anti-fibrotic activity”.
